According to paper doi:10.1101/757047v1 (biorxiv, 2019):

Legend:
[1] = biological target: T1, full length GAK protein N-terminally fused with NanoLuc luciferase (Homo sapiens, UniProt O14976); experiment: nanoBRET cellular target engagement; format: cell-based
T1 sequence (O14976 2-1311): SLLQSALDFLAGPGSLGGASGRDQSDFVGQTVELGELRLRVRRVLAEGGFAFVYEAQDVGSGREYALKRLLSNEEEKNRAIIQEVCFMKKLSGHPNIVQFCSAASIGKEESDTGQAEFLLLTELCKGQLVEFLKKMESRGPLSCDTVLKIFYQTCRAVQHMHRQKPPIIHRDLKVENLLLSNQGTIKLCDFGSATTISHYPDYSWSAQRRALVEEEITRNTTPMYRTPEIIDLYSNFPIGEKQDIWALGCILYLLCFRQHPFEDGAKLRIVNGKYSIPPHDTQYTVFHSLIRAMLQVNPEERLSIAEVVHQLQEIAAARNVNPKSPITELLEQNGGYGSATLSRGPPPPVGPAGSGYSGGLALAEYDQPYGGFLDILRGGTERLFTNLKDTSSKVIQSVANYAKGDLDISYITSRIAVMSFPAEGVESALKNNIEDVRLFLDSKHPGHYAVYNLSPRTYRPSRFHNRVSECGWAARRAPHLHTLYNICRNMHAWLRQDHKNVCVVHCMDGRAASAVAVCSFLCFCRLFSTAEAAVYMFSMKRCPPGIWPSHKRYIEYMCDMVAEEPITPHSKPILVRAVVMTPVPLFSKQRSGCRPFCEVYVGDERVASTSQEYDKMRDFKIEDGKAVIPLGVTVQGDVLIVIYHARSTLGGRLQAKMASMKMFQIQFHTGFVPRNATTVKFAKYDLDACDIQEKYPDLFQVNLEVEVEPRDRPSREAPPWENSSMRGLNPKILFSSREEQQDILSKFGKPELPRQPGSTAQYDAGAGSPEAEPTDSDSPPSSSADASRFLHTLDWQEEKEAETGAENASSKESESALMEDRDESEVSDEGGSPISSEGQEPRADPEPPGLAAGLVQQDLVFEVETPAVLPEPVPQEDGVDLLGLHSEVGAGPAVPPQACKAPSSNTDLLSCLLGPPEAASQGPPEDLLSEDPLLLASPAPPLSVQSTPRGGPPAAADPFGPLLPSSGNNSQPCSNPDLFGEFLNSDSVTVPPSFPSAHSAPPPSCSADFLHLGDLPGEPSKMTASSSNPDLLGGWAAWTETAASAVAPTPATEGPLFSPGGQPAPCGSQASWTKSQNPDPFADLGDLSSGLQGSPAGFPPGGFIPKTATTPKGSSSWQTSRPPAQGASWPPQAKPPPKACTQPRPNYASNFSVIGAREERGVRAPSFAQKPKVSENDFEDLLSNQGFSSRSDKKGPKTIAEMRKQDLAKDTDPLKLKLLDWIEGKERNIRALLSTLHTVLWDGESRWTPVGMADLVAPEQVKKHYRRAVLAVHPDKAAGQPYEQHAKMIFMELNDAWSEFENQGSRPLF

[2] = biological target: T2, SLK (Homo sapiens, UniProt Q9H2G2); experiment: TR-FRET binding displacement assay
T2 sequence (Q9H2G2 34-292): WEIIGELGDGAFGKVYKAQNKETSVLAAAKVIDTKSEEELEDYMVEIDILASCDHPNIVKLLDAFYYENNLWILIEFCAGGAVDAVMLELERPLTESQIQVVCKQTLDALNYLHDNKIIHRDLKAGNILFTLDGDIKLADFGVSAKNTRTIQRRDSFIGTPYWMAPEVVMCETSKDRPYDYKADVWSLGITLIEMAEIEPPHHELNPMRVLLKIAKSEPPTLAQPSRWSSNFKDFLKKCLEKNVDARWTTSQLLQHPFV

[3] = biological target: T3, STK10 (Homo sapiens, UniProt O94804); experiment: TR-FRET binding displacement assay
T3 sequence (O94804 36-294 limits assumed): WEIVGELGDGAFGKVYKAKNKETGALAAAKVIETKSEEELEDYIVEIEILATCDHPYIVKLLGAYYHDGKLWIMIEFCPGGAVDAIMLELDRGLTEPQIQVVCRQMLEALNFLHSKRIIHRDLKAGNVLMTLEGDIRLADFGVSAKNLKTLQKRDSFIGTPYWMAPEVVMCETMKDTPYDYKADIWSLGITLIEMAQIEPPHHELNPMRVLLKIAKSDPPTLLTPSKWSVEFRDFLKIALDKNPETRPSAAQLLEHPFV

[4] = biological target: T4, GAK (Homo sapiens, UniProt O14976); experiment: TR-FRET binding displacement assay
T4 sequence (O14976 12-347 limits assumed): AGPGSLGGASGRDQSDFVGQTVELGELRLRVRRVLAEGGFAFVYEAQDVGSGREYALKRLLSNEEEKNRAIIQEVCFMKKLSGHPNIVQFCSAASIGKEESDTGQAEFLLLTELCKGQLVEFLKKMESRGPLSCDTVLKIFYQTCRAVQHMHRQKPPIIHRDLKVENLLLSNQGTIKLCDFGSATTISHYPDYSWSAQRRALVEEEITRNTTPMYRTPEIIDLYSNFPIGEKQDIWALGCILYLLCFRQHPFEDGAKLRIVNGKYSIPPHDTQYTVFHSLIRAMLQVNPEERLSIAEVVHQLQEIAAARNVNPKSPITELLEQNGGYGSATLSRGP

[5] = biological target: T1, full length GAK protein N-terminally fused with NanoLuc luciferase; experiment: cell-based; parameters: species or system HEK293T
[6] = biological target: T2, SLK; experiment: biochemical
[7] = biological target: T3, STK10; experiment: biochemical
[8] = biological target: T4, GAK; experiment: biochemical
[9] = biological target: T2, SLK; experiment: biochemical; remark: listed apart in the source
[10] = biological target: T3, STK10; experiment: biochemical; remark: listed apart in the source
[11] = biological target: T1, full length GAK protein N-terminally fused with NanoLuc luciferase; experiment: cell-based; parameters: species or system HEK293T; remark: listed apart in the source
[12] = HEK293T cells, tracer displacement, n=[…] mean
[13] = ATP site tracer displacement, 16-point dose response

Structure (SMILES) | IC50 [1] [nM] | Ki [2] [nM] | Ki [3] [nM] | Ki [8] [nM] | Ki [9] [nM] | Ki [10] [nM] | IC50 [11] [nM] | also measured
C#Cc1ccc(F)c(Nc2ncnc3cc(C#N)ccc23)c1 [compound 87, 4-((5-ethynyl-2-fluorophenyl)amino)quinazoline-7-carbonitrile] | – | 560 | 670 | – | – | – | – | Ki [4]: 1200 nM; IC50 [5]: > 5000 nM
C#Cc1cc(Nc2ncnc3cc(I)ccc23)ccc1F [compound 93, 93] | – | – | – | – | – | – | – | Ki [6]: 110 nM; Ki [7]: 110 nM; IC50 [5]: > 5000 nM
COc1cc(Nc2ccnc3cc(C(F)(F)F)ccc23)cc(OC)c1OC [compound 20, 20] | – | 3200 | 370 | – | – | – | – | IC50 [1, 12]: 520 nM; Ki [4, 13]: 6.2 nM
COc1cc2ncnc(Nc3ccc(F)c(Cl)c3)c2cc1NC(=O)/C=C/CN1CCCCC1 [Dacomitinib] | 49 | 1100 | 590 | – | – | – | – | Ki [4]: 7 nM
C#Cc1cccc(Nc2ncnc3ccc(C)cc23)c1 [compound 55, 55] | – | – | – | 43 | 4300 | 2600 | 3600 | –
CCOc1cc2ncc(C#N)c(Nc3ccc(OCc4ccccn4)c(Cl)c3)c2cc1NC(=O)/C=C/CN(C)C [Neratinib] | 2300 | – | – | – | – | – | – | Ki [4]: 290 nM
COc1cc(Nc2ccnc3cc(Br)ccc23)cc(OC)c1OC [compound 18, 18] | 270 | 2700 | 380 | – | – | – | – | Ki [4]: 4.9 nM
COc1cc(Nc2ccnc3ccccc23)cc(OC)c1OC [compound 7, 7] | 730 | > 55000 | 27800 | – | – | – | – | Ki [4, 13]: 40 nM
COc1ccc2c(Nc3cc(OC)c(OC)c(OC)c3)ccnc2c1 [compound 22, 22] | – | 13000 | 1300 | – | – | – | – | IC50 [1, 12]: 440 nM; Ki [4, 13]: 2.6 nM
C#Cc1cccc(Nc2ncnc3cc(C(F)(F)F)ccc23)c1 [compound 66, 66] | – | – | – | 88 | 1200 | 1000 | > 5000 | –
C#Cc1cccc(Nc2ncnc3ccc(F)cc23)c1 [compound 56, 56] | – | – | – | 70 | 8500 | 5500 | 2000 | –
C#Cc1cccc(Nc2ncnc3ccc(OC)cc23)c1 [compound 70, 70] | – | – | – | 24 | 2800 | 2200 | 2900 | –
C#Cc1cccc(Nc2ncnc3cc4c(cc23)OCO4)c1 [compound 73, 73] | – | – | – | 19 | 2700 | 1500 | 1700 | –
C#Cc1cccc(Nc2ncnc3ccc(I)cc23)c1 [compound 60, 60] | – | – | – | 44 | 4300 | 3700 | > 5000 | –
C#Cc1cccc(Nc2ncnc3cc(Br)ccc23)c1 [compound 64, 64] | – | – | – | 31 | 260 | 290 | > 5000 | –
C#Cc1cccc(Nc2ncnc3cc(OC)ccc23)c1 [compound 72, 72] | – | – | – | 8.8 | 670 | 460 | 1200 | –
C#Cc1cccc(Nc2ncnc3cc(OC)c(OC)cc23)c1F [compound 100, 100] | – | – | – | – | – | – | – | Ki [6]: 670 nM; Ki [7]: 250 nM; IC50 [5]: 400 nM
C#Cc1cccc(Nc2c(C#N)cnc3cc(OC)c(OC)cc23)c1 [compound 82, 82] | – | – | – | – | – | – | – | IC50 ([1]; HEK293T cells, tracer displacement): 40 nM; Ki [4, 13]: 0.32 nM
C#Cc1cccc(Nc2ncnc3ccc(Br)cc23)c1 [compound 59, 59] | – | – | – | 28 | 3400 | 2500 | > 5000 | –
C#Cc1cccc(Nc2ncnc3ccc(Cl)cc23)c1 [compound 58, 58] | – | – | – | 30 | 3900 | 2800 | > 5000 | –
COc1cc(Nc2ccnc3cc(C#N)ccc23)cc(OC)c1OC [compound 21, 21] | 350 | 1100 | 130 | – | – | – | – | Ki [4, 13]: 2.7 nM
C#Cc1cccc(Nc2ncnc3ccc(C(F)(F)F)cc23)c1 [compound 61, 61] | – | – | – | 150 | 3200 | 3400 | > 5000 | –
C#Cc1cccc(Nc2ccnc3cc(OCCOC)c(OCCOC)cc23)c1 [compound 1, erlotinib quinoline] | – | 1200 | 720 | – | – | – | – | IC50 [1, 12]: 4200 nM; Ki [4]: 100 nM
COc1cc(Nc2ccnc3ccc(C#N)cc23)cc(OC)c1OC [compound 13, 13] | 360 | 19000 | 1700 | – | – | – | – | Ki [4, 13]: 1.5 nM

Continued, in another order:

IC50 [1] [nM] | Ki [2] [nM] | Ki [3] [nM] | Ki [8] [nM] | Ki [9] [nM] | Ki [10] [nM] | IC50 [11] [nM] | Structure (SMILES) | also measured
110 | 5800 | 24300 | – | – | – | – | COc1cc(Nc2ccnc3ccc(I)cc23)cc(OC)c1OC [compound 11, 11] | Ki [4]: 3.8 nM
– | – | – | 22 | 1200 | 1200 | 4100 | C#Cc1cccc(Nc2ncnc3cc(F)ccc23)c1 [compound 62, 62] | –
– | – | – | 170 | 7900 | 4700 | > 5000 | C#Cc1cccc(Nc2ncnc3ccc(C#N)cc23)c1 [compound 68, 68] | –
– | – | – | 170 | 23000 | 10000 | 4500 | C#Cc1cccc(Nc2ncnc3ccccc23)c1 [compound 54, 54] | –
140 | 26000 | 2700 | – | – | – | – | COc1cc(Nc2ccnc3cc(F)c(F)cc23)cc(OC)c1OC [compound 9, 6,7-difluoro-N-(3,4,5-trimethoxyphenyl)quinolin-4-amine] | Ki [4]: 6.9 nM
74 | 1700 | 210 | – | – | – | – | COc1cc(Nc2ccnc3cc(I)ccc23)cc(OC)c1OC [compound 19, 19] | Ki [4]: 4.4 nM
– | – | – | 85 | 3800 | 2900 | > 5000 | C#Cc1cccc(Nc2ncnc3cc(F)c(F)cc23)c1 [compound 57, 57] | –
250 | 2100 | 210 | – | – | – | – | COc1cc(Nc2ccnc3cc(Cl)ccc23)cc(OC)c1OC [compound 17, 17] | Ki [4]: 1.3 nM
210 | 11000 | 1000 | – | – | – | – | COc1cc(Nc2ccnc3ccc(Cl)cc23)cc(OC)c1OC [compound 10, 10] | Ki [4]: 0.68 nM
– | – | – | 20 | 180 | 150 | > 5000 | C#Cc1cccc(Nc2ncnc3cc(I)ccc23)c1 [compound 65, 65] | –
360 | > 55000 | 12000 | – | – | – | – | COc1ccc2nccc(Nc3cc(OC)c(OC)c(OC)c3)c2c1 [compound 14, 14] | Ki [4, 13]: 13 nM
